The record followed here is patent US12655142B2 (Merck Patent GmbH, priority 2019, dated 2026).

For one data set, the target named is T1, c-Kit(V654A) (Homo sapiens, UniProt P10721, V654A).
T1 construct: recombinant human c-Kit, amino acids 544-end containing the V654A mutation; GST (N)
Description: c-Kit(V654A) assay (33P-ATP filter binding kinase assay). Type of data set: biochemical. Conditions: recombinant human c-Kit aa 544-end V654A, ATP 200 μM. An outline of the steps:
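Radiometric filter-binding read-out: substrate 33P incorporation counted by scintillation after P30 filtermat washes in 75 mM phosphoric acid and methanol. Enzyme: N-GST recombinant human c-Kit aa 544-end carrying V654A.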

For data set [1], the target named is T2, GIST430/654 cell line expressing mutated constitutively active cKIT receptor tyrosine kinase (Δ560-576 deletion and V654A point mutation) (Homo sapiens, UniProt P10721, DEL560-576/V654A).
T2 construct: endogenous in cells; host or cells: GIST430/654 cells
Description: Cellular cKIT autophosphorylation (phospho-Y307-cKIT, Luminex bead assay) in GIST430/654 cells. In kind it is cell-based. The following applies: compounds 45 min, read-out: GIST 430/654 IC50. An outline of the steps:
(§1)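 GIST430 (Δ560-576) and imatinib-resistant GIST430/654 (plus V654A; grown with 100 nM imatinib) cells were plated in IMDM/15% FCS and treated next day with serially diluted compound for 45 min. Lysates were captured on anti-total-cKIT Luminex beads overnight at 4 °C and probed for phospho-Y307. IC50 was taken from percent of 0.3% DMSO control.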

The target in data set [2] is T3, GIST430 cell line expressing constitutive active cKIT receptor tyrosine kinase (Δ560-576 deletion) (Homo sapiens, UniProt P10721, DEL560-576).
T3 construct: endogenous in cells; host or cells: GIST430 cells
Description: Cellular cKIT autophosphorylation (phospho-Y307-cKIT, Luminex bead assay) in GIST430 cells. Conditions: cKIT autophosphorylation, GIST430 cells, compounds 45 min; read-out: GIST 430 IC50. In kind it is cell-based. An outline of the steps: as §1

Data set [3] in a line: Determination of solubility. Conditions: 20 mM Sorensen phosphate buffer, pH 7.4, aqueous buffer, kinetic from dmso stock.
Description: (§2) In a 96 well filtration plate, 2 μL of a 10 mM solution of the test compound in DMSO is added to 98 μL of 20 mM Sorensen phosphate buffer with pH 7.4. The mixture is incubated at room temperature for 120 min while agitating at 250 rpm followed by centrifugation at 2500 rpm for 3 min. After dilution by a factor of 2, the concentration of the test compound is determined using HPLC/UPLC with detection at a suitable wavelength and by comparison to a corresponding compound standard.
A short description of data set [4]: Determination of Efflux-Ratio (ER) in Caco-2 cells. Conditions: human, Caco-2, pH 7.4. (In general: Caco-2 cells form a polarised layer with tight junctions and transporters.)
Description: Determination of Efflux-Ratio (ER) in Caco-2 Cells
The efflux ratio of the test compounds was determined in Caco-2 human epithelial colorectal adenocarcinoma cell line (TC7 clone) using calculation of apparent permeability (Papp). Cell monolayers were differentiated in vitro for 14 days before the experiment. Subsequently, the test compound (in HBSS pH 7.4 at 1 μM final concentration) was applied on the donor side while HBSS buffer (pH 7.4) was added to the receiver wells. […] The plate was then incubated in a 5% CO2 incubator (37° C., 100% humidity). At the end of the 2 hours incubation period, 50 μL sample was removed from both donor and receiver wells and diluted 1:1 with equal volumes of acetonitrile for LC-MS/MS analysis. The LC-MS/MS analysis used a one-point calibration method from a 1 μM standard solution diluted 1:1 with equal volume of acetonitrile (consistent to the test samples).
The data was used to calculate the apparent permeabilities of the compounds in both apical to basolateral (Papp,AB) and basolateral to apical (Papp,BA) directions at 1 μM concentration in duplicate. The Papp values were calculated from the concentrations in the donor and receiver compartments using the following formula:
Efflux ratio was calculated according to the following formula:
The conditions of data set [5]: pH 7.4.
Description: as §2

T1 sequence (P10721 544-976 V654A): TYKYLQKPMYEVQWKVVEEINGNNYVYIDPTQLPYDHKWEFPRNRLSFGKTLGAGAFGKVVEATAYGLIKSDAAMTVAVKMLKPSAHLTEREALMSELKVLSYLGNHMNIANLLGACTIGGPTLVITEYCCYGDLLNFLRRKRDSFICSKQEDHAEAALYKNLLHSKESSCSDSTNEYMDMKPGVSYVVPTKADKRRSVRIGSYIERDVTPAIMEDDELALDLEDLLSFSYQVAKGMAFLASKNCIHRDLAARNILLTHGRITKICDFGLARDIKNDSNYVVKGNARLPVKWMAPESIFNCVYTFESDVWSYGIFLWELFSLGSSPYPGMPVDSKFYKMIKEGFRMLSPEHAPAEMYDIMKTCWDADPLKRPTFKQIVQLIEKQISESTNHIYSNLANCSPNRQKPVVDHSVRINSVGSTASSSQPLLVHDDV
T2 sequence (P10721 with tags, fused parts or gaps DEL560-576/V654A): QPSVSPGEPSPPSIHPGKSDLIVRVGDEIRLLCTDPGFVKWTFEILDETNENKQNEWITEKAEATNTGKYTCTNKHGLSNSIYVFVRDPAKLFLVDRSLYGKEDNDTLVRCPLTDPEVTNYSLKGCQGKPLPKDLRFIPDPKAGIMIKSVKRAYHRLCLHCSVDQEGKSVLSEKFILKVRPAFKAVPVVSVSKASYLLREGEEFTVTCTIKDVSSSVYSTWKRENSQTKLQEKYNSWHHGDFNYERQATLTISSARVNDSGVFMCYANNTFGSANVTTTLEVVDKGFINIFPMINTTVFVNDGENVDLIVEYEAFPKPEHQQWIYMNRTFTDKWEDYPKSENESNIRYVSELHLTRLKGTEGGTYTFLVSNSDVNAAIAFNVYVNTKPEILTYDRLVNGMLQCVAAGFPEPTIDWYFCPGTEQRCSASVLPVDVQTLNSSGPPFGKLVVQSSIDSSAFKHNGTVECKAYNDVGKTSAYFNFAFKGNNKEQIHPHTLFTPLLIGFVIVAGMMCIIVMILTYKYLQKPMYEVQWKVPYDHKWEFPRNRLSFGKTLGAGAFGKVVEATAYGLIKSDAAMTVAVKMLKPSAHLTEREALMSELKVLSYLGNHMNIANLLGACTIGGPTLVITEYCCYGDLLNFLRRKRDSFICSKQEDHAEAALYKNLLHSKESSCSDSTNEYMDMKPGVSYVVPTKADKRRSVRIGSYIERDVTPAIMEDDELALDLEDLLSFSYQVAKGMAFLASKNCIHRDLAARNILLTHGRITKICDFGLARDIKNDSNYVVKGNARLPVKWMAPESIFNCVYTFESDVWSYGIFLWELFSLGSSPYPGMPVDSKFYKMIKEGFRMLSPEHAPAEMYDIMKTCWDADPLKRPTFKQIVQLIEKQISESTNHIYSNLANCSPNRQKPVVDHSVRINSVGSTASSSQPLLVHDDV
T3 sequence (P10721 with tags, fused parts or gaps DEL560-576): as the sequence (P10721 with tags, fused parts or gaps DEL560-576/V654A) above, with A612V counted along it

Usually solubility stands for how much of the substance goes into solution per volume. As usually defined, the efflux ratio is a quotient of directional permeabilities that is used to spot active efflux. With `Cn1cc(-c2ccc(CNc3cc(-c4cnc5cc(OCCN6CCCC6)ccn45)ncn3)cc2)cn1` [A60, [4-(1-methyl-1H-pyrazol-4-yl)-benzyl]-{6-[7-(2-pyrrolidin-1-yl-ethoxy)-imidazo[1,2-a]pyridin-3-yl]-pyrimidin-4-yl}-amine], the IC50 at c-Kit(V654A) amounted to 8 nM; in data set [1], 70 nM; in data set [2], 4.9 nM. In data set [3], this compound came in with a solubility at 120 min of at least 25 µM. The efflux ratio at 2 h, 1 μM in data set [4] was below 15.
In the case of `Cn1cc(-c2ccc(CNc3cc(-c4cnc5cc(OCCCN6CCC6)ccn45)ncn3)cc2)cn1` [A102], the IC50 is 9.8 nM at c-Kit(V654A), 46 nM in data set [1] and 3 nM in data set [2]. Besides, the solubility result in data set [5] was “at least 25 μM”.
For the compound `Cn1cc(-c2ccc(CNc3cc(-c4cnc5cc(OCCN6CCC6)ccn45)ncn3)cc2)cn1` [A99, 6-{7-[2-(azetidin-1-yl)ethoxy]imidazo[1,2-a]pyridin-3-yl}-N-{[4-(1-methyl-1H-pyrazol-4-yl)phenyl]methyl}pyrimidin-4-amine], the IC50 at c-Kit(V654A) was determined as 8.2 nM; in data set [1] it was 62 nM. Also, the solubility at 120 min in data set [3] was at least 25 µM. In data set [4], the efflux ratio at 2 h, 1 μM was in the range of 15 to 50.
For `Cn1ncc(-c2ccc(CNc3cc(-c4cnc5cc(OCCN6CCC6)ccn45)ncn3)cc2)n1` [A100, 6-{7-[2-(azetidin-1-yl)ethoxy]imidazo[1,2-a]pyridin-3-yl}-N-{[4-(2-methyl-2H-1,2,3-triazol-4-yl)phenyl]methyl}pyrimidin-4-amine] the same measures were 9.2 nM, 38 nM, at least 25 µM and below 15.
For `Cn1cc(-c2ccc(CNc3cc(-c4cnc5cc(OCCCN6CCCC6)ccn45)ncn3)cc2)cn1` [A75, [4-(1-methyl-1H-pyrazol-4-yl)-benzyl]-{6-[7-(3-pyrrolidin-1-yl-propoxy)-imidazo[1,2-a]pyridin-3-yl]-pyrimidin-4-yl}-amine], the IC50 amounted to 8.5 nM at c-Kit(V654A), 59 nM in data set [1] and 2.9 nM in data set [2]. This compound had a solubility at 120 min in data set [3] of at least 25 µM. Further, the efflux ratio at 2 h, 1 μM in data set [4] is below 15.
In the case of `Cn1cc(-c2ccc(CNc3cc(-c4cnc5cc(CCN6CCCC6)ccn45)ncn3)cc2)cn1` [A168, [4-(1-methyl-1H-pyrazol-4-yl)-benzyl]-{6-[7-(2-pyrrolidin-1-yl-ethyl)-imidazo[1,2-a]pyridin-3-yl]-pyrimidin-4-yl}-amine], the results for the IC50 (on c-Kit(V654A); in data set [1]) were 27 nM and 630 nM, respectively. This compound had a solubility at 120 min in data set [3] of at least 25 µM. Also, in data set [4], the efflux ratio at 2 h, 1 μM is below 15.
With `Cn1cc(-c2ccc(CNc3cc(-c4cnc5cc(OCCN6CCN7CCC6C7)ccn45)ncn3)cc2)cn1` (stereo not drawn) [A212, (6-{7-[2-(1,4-diaza-bicyclo[3.2.1]oct-4-yl)-ethoxy]-imidazo[1,2-a]pyridin-3-yl}-pyrimidin-4-yl)-[4-(1-methyl-1H-pyrazol-4-yl)-benzyl]-amine], the IC50 came to 7.3 nM on c-Kit(V654A) and 210 nM in data set [1]. The same compound had a solubility at 120 min in data set [3] of at least 25 µM. The efflux ratio at 2 h, 1 μM in data set [4] is above 50.
Consider `Cn1ncc(-c2ccc(CNc3cc(-c4cnc5cc(OCCCN6CCCC6)ccn45)ncn3)cc2)n1` [A84, [4-(2-methyl-2H-[1,2,3]triazol-4-yl)-benzyl]-{6-[7-(3-pyrrolidin-1-yl-propoxy)-imidazo[1,2-a]pyridin-3-yl]-pyrimidin-4-yl}-amine], for which the IC50 amounted to 2.8 nM on c-Kit(V654A), 45 nM in data set [1] and 2.4 nM in data set [2]. Also, the solubility at 120 min in data set [3] is at least 25 µM. Further, the efflux ratio at 2 h, 1 μM in data set [4] was below 15.
For `Cn1ncc(-c2ccc(CNc3cc(-c4cnc5cc(OCCCN6CCC6)ccn45)ncn3)cc2)n1` [A120, {6-[7-(3-azetidin-1-yl-propoxy)-imidazo[1,2-a]pyridin-3-yl]-pyrimidin-4-yl}-[4-(2-methyl-2H-[1,2,3]triazol-4-yl)-benzyl]-amine] the same measures were 2.9 nM, 52 nM, 2.3 nM, at least 25 µM and below 15.
As to `c1ccn2c(-c3cc(NCc4ccc(-n5ccnc5)cc4)ncn3)cnc2c1` [A8, (6-Imidazo[1,2-a]23yridine-3-yl-pyrimidin-4-yl)-(4-imidazol-1-yl-benzyl)-amine], the IC50 was 23 nM on c-Kit(V654A) and 500 nM in data set [1]. Besides, in data set [3], the solubility at 120 min was at least 25 µM. The efflux ratio at 2 h, 1 μM in data set [4] is below 15.
In the case of `Cc1nc(-c2ccc(CNc3cc(-c4cnc5cc(OCCCN6CCCC6)ccn45)ncn3)cc2)co1` [A242, [4-(2-methyl-oxazol-4-yl)-benzyl]-{6-[7-(3-pyrrolidin-1-yl-propoxy)-imidazo[1,2-a]pyridin-3-yl]-pyrimidin-4-yl}-amine], the IC50 at c-Kit(V654A) came to 1.1 nM; in data set [1] it was 10000 nM. For the same compound, the solubility at 120 min in data set [3] was at least 25 µM. In addition, the efflux ratio at 2 h, 1 μM in data set [4] is below 15.
For `c1nc(NCc2ccc(-c3cocn3)cc2)cc(-c2cnc3cc(OCCCN4CCCC4)ccn23)n1` [A252, (4-oxazol-4-yl-benzyl)-{6-[7-(3-pyrrolidin-1-yl-propoxy)-imidazo[1,2-a]pyridin-3-yl]-pyrimidin-4-yl}-amine] the same measures were 2.2 nM, 47 nM, at least 25 µM and below 15.
For `F[C@@H]1CCN(c2ccc(CNc3cc(-c4cnc5ccccn45)ncn3)cn2)C1` [A153, N-({6-[(3R)-3-fluoropyrrolidin-1-yl]pyridin-3-yl}methyl)-6-{imidazo[1,2-a]pyridin-3-yl}pyrimidin-4-amine], the IC50 was 6.4 nM at c-Kit(V654A), 120 nM in data set [1] and 6.4 nM in data set [2]. The compound further had a solubility at 120 min in data set [3] of at least 25 µM. Besides, the efflux ratio at 2 h, 1 μM in data set [4] was below 15.
